Series [1] is described as follows: Solubility / appearance of avenanthramide solutions with and without 4-hydroxyacetophenone, evaluated at 22° C. Type of series: physicochemical. As for the experimental part:
The solubility of avenanthramides A, B, C, D or L and Dihydroavenanthramide D in solution in combination with 4-hydroxyacetophenone in different concentrations was evaluated against a solution of avenanthram ides A, B, C, D and L without 4-hydroxyacetophenone.
The corresponding avenanthramides were presolved in ethanol or glycol. Water and 4-hydroxyacetophenone were added under stirring and heating up the solution to 60° C. The appearance of the solutions was evaluated at 22° C. according to the following Table 1: […]

For series [2] the following is noted: Avn C, followed by Avn B and Avn A; cited from earlier work.
[3] abbreviates: addition of 4-hydroxyacetophenone in concentration of 0.1 or 0.5 wt % (Table 3, Table 4 b).

We go through four compounds from patent US20230129036A1, “AVENANTHRAMIDE COMPOSITIONS WITH IMPROVED SOLUBILITY COMPRISING 4-HYDROXYPHENONE” (priority 2020, published 2023).

For `O=C(C=Cc1ccc(O)cc1)Nc1ccc(O)cc1C(=O)O` [Avenanthramide A, N-(4′-hydroxycinnamoyl)-5-hydroxyanthranilic acid], the “Effect of 4-hydroxyacetophenone on solubility” value in series [1] (4-hydroxyacetophenone 0.01 wt %) is “improves the solubility”. The Appearance of solution entry in series [1] (setting [3]) is reported as “clear solutions without turbidity or precipitation”.
For `O=C(C=Cc1ccc(O)c(O)c1)Nc1ccc(O)cc1C(=O)O` [Avenanthramide C, N-(3′-4′-dihydroxycinnamoyl)-5-hydroxyanthranilic acid], in series [2], the “Antioxidant activity, ranking among Avns” value is on record as “highest activity”.
For `O=C(/C=C/C=C/c1ccc(O)cc1)Nc1ccc(O)cc1C(=O)O` [Avenanthramide L], the Appearance of solution entry in series [1] (4-hydroxyacetophenone concentration increased to 0.5% as in Table 4 b) is on record as “clear solution”; in series [1] (setting [3]), “clear solutions without turbidity or precipitation”. Besides, the “Effect of addition of 4-hydroxyacetophenone on solubility / appearance” value in series [1] (versus solution without 4-hydroxyacetophenone, increasing concentration) is given as “improved”.
As to `O=C(CCc1ccc(O)cc1)Nc1ccccc1C(=O)O` [Dihydroavenanthramide D, 2-[(3-(4-hydroxyphenyl)propanoyl]amido)benzoic acid], the Appearance of solution result in series [1] (addition of 4-hydroxyacetophenone in concentrations of 0.5 to 1.0% (Tables 7 a and 7 b)) is “clear solutions withouts turbidity or precipitation”.
